According to patent US20100022509A1, “Inhibitors of MshC and Homologs Thereof, and Methods of Identifying Same” (priority 2006, published 2010):
Like-named read-outs stand apart in the source and are kept apart here.

Target: T1, MshC (Mycobacterium tuberculosis, UniProt P9WJM9)
T1 sequence (P9WJM9 1-414): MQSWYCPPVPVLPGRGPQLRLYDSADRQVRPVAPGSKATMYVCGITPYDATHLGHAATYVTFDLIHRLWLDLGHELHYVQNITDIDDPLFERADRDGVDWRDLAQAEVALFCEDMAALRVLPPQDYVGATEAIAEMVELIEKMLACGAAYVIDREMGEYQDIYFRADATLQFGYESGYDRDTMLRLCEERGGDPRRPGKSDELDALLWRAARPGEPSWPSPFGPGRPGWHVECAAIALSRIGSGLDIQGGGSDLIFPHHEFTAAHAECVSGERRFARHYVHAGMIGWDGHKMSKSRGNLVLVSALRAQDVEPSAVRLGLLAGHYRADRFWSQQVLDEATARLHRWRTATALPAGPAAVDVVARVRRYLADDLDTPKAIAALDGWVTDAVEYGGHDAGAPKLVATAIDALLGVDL
Assay: biochemical
Type: biochemical, M. tuberculosis

| SMILES | inhibition of MshC in words, 1,3-diaminopropyl residue with remote amino residue capable of protonation | inhibition of MshC in words, Z is a benzyl moiety bearing one or more halogens | IC50 (IC50) [µM] | inhibition of MshC in words, compounds grouped by X (X=S, X=SO, X=SO2) | IC50 (IC50, μM) [µM] | further results |
| --- | --- | --- | --- | --- | --- | --- |
| O=C(NCCCN1CCOCC1)c1ccc2c(c1)N(Cc1cccc(Cl)c1)C(=O)c1ccccc1[S+]2[O-] (centres unmarked) [Inhibitor 83-70] | measurable inhibition | Measurable inhibition | 470 ± 130 | – | – | inhibition of MshC in words, compounds grouped by X: Significant inhibition |
| O=C(NCCCN1CCCC1)c1ccc2c(c1)N(Cc1cccc(Cl)c1)C(=O)c1ccccc1[S+]2[O-] (centres unmarked) [Inhibitor 83-72] | measurable inhibition | Measurable inhibition | 97 ± 26 | Significant inhibition | – | – |
| CCCN(CCC)CCCNC(=O)c1ccc2c(c1)N(Cc1cccc(Cl)c1)C(=O)c1ccccc1[S+]2[O-] (centres unmarked) [Inhibitor 83-73] | measurable inhibition | Measurable inhibition | ~200 | Significant inhibition | – | – |
| CCCCSCCCNC(=O)c1ccc2c(c1)N(Cc1cccc(Cl)c1)C(=O)c1ccccc1[S+]2[O-] (centres unmarked) [Inhibitor 83-74] | – | – | > 3000 | – | – | inhibition of MshC in words, compounds lacking the basic amino group or with groups in excess of 10 carbons on the remote amino residue: little or no inhibition |
| O=C(NCCN1CCCCCC1)c1ccc2c(c1)N(Cc1cccc(Cl)c1)C(=O)c1ccccc1[S+]2[O-] (centres unmarked) [Inhibitor 83-75] | measurable inhibition | Measurable inhibition | ~80 | Significant inhibition | – | – |
| CCCCN(CCCNC(=O)c1ccc2c(c1)N(Cc1cccc(Cl)c1)C(=O)c1ccccc1[S+]2[O-])Cc1ccccc1 (centres unmarked) [Inhibitor 83-76] | – | – | ≥ 3000 | – | – | – |
| CC1CC(C)CN(CCCNC(=O)c2ccc3c(c2)N(Cc2cccc(Cl)c2)C(=O)c2ccccc2S3(=O)=O)C1 (centres unmarked) [Inhibitor 83-77] | – | – | 2300 ± 700 | – | – | – |
| O=C(NCCCN1CCCC1)c1ccc2c(c1)N(Cc1cccc(Cl)c1)C(=O)c1ccccc1S2(=O)=O [Inhibitor 83-78] | measurable inhibition | Measurable inhibition | ~500 | Significant inhibition | – | – |
| O=C(NCCN1CCN(Cc2ccccc2)CC1)c1ccc2c(c1)N(Cc1cccc(Cl)c1)C(=O)c1ccccc1S2(=O)=O [Inhibitor 83-79] | – | – | > 3000 | – | – | inhibition of MshC in words, compounds lacking the basic amino group or with groups in excess of 10 carbons on the remote amino residue: little or no inhibition |
| O=C(NCC1CCN(Cc2ccccc2)CC1)c1ccc2c(c1)N(Cc1cccc(Cl)c1)C(=O)c1ccccc1S2(=O)=O [Inhibitor 83-80] | – | – | > 3000 | – | – | – |
| CC(C)CN(CCCNC(=O)c1ccc2c(c1)N(Cc1cccc(Cl)c1)C(=O)c1ccccc1S2(=O)=O)CC(C)C [Inhibitor 83-81] | – | – | > 3000 | – | – | – |
| O=C(NCCCN1CCOCC1)c1ccc2c(c1)N(Cc1cccc(Cl)c1)C(=O)c1ccccc1S2(=O)=O [Inhibitor 83-82] | – | – | ~3000 | – | – | – |
| CCCN(CCC)CCCNC(=O)c1ccc2c(c1)N(Cc1cccc(Cl)c1)C(=O)c1ccccc1S2(=O)=O [Inhibitor 83-83] | measurable inhibition | Measurable inhibition | 980 ± 40 | Significant inhibition | – | – |
| CN(C)CCCNC(=O)c1ccc2c(c1)N(Cc1ccc(Cl)cc1)C(=O)c1ccccc1[S+]2[O-] (centres unmarked) [Inhibitor 1028] | measurable inhibition | Measurable inhibition | – | – | 335 ± 15 | inhibition of MshC in words, compounds grouped by X: Significant inhibition |
| CC1CCCN(CCCNC(=O)c2ccc3c(c2)N(Cc2ccc(F)cc2)C(=O)c2ccccc2[S+]3[O-])C1 (centres unmarked) [Inhibitor 1051] | measurable inhibition | Measurable inhibition | – | Significant inhibition | 710 ± 20 | – |
| Cc1ccc(C)c(CN2C(=O)c3ccccc3[S+]([O-])c3ccc(C(=O)NCCCN4CCCC4)cc32)c1 (centres unmarked) [Inhibitor 1061] | measurable inhibition | – | – | Significant inhibition | 1600 ± 300 | inhibition of MshC in words, Z benzyl moiety with methyl groups in the 2,5 positions or unsubstituted: Weak but detectable inhibition |
| CCCCN(C)CCCNC(=O)c1ccc2c(c1)N(Cc1cc(C)ccc1C)C(=O)c1ccccc1[S+]2[O-] (centres unmarked) [Inhibitor 1062] | measurable inhibition | – | – | – | ~2500 | inhibition of MshC in words, Z benzyl moiety with methyl groups in the 2,5 positions or unsubstituted: Weak but detectable inhibition |
| CCN1C(=O)c2ccccc2[S+]([O-])c2ccc(C(=O)NCCCN3CCOCC3)cc21 (centres unmarked) [Inhibitor 1075] | – | – | – | – | > 3000 | – |
| CCN1C(=O)c2ccccc2[S+]([O-])c2ccc(C(=O)NCCN3CCCCCC3)cc21 (centres unmarked) [Inhibitor 1081] | – | – | – | – | > 3000 | – |
